Laboratory results reported in US20120329711A1, “GLP-1 RECEPTOR AGONIST COMPOUNDS WITH A MODIFIED N-TERMINUS” (Nordisk A/S, priority 2009, published 2012).
pEC50, pIC50: −log10 of the molar value.

Legend:
human GLP-1 receptor [1] = biological target: T1, human GLP-1 receptor (Homo sapiens, UniProt P43220); assay: In vitro potency: stimulation of cAMP formation in membranes expressing the human GLP-1 receptor (AlphaScreen cAMP Assay); type: biochemical; set-up: expressed in transfected cells; membranes; conditions: purified plasma membranes from BHK467-12A (tk-ts13) expressing the human GLP-1 receptor
Experimental: Purified plasma membranes from a stable transfected cell line, BHK467-12A (tk-ts13), expressing the human GLP-1 receptor were stimulated with the GLP-1 receptor agonist derivative in question, and the potency of cAMP production was measured using the AlphaScreen™ cAMP Assay Kit from Perkin Elmer Life Sciences. The basic principle of The AlphaScreen Assay is a competition between endogenous cAMP and exogenously added biotin-cAMP. The capture of cAMP is achieved by using a specific antibody conjugated to acceptor beads.
A stable transfected cell line and a high expressing clone were selected for screening. The cells were grown at 5% CO2 in DMEM, 5% FCS, 1% Pen/Strep (Penicillin/Streptomycin) and 0.5 mg/ml of the selection marker G418.
Cells at approximate 80% confluence were washed 2× with PBS and harvested with Versene (aqueous solution of the tetrasodium salt of ethylenediaminetetraacetic acid), centrifuged 5 min at 1000 rpm and the supernatant removed. The additional steps were all made on ice. The cell pellet was homogenised by the Ultrathurax for 20-30 sec. in 10 ml of Buffer 1 (20 mM Na-HEPES, 10 mM EDTA, pH=7.4), centrifuged 15 min at 20.000 rpm and the pellet resuspended in 10 ml of Buffer 2 (20 mM Na-HEPES, 0.1 mM EDTA, pH=7.4). […] The protein concentration was determined and the membranes stored at −80° C. until use. […]
Target sequence in this assay (P43220 24-463): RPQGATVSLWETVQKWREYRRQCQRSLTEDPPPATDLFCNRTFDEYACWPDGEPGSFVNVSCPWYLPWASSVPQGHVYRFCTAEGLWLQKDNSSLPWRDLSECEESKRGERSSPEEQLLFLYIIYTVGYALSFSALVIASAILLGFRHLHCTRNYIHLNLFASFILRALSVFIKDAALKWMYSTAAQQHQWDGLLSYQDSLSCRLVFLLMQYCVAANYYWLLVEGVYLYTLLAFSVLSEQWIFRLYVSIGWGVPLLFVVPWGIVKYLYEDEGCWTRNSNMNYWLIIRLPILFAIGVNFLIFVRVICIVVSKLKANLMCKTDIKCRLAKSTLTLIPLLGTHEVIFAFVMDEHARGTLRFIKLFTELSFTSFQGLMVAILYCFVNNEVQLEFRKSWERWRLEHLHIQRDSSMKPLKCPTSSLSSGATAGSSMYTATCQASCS

human GLP-1 receptor [2] = biological target: T1, human GLP-1 receptor; assay: GLP-1 receptor binding: displacement of 125I-GLP-1 (SPA) at low and high albumin; set-up: expressed in transfected cells; membranes; conditions: 2.0% HSA; displacement of 125I-GLP-1, BHK tk-ts13 membranes
Experimental: The binding affinity of the GLP-1 receptor agonist derivatives of Examples 1-12 to the human GLP-1 receptor was measured by way of their ability to displace of ^125I-GLP-1 from the receptor.
In order to test the binding of the derivatives to albumin, the assay was performed with a low concentration of albumin (0.005%—corresponding to the residual amount thereof in the tracer), as well as with a high concentration of albumin (2.0% added).
Species (in vitro): Hamster
Biological End Point: Receptor Binding
A stable transfected cell line and a high expressing clone were selected for screening. The cells were grown at 5% CO2 in DMEM, 10% FCS, 1% Pen/Strep (Penicillin/Streptomycin) and 1.0 mg/ml of the selection marker G418.
The cells (approx. 80% confluence) were washed twice in PBS and harvested with Versene (aqueous solution of the tetrasodium salt of ethylenediaminetetraacetic acid), following which they were separated by centrifugation at 1000 rpm for 5 min. The cells/cell pellet must be kept on ice to the extent possible in the subsequent steps. […] The resulting pellet was resuspended in Buffer 2, and the protein concentration was determined. […]
Test compounds, membranes, SPA-particles and [^125I]-GLP-1(7-36)NH2 were diluted in assay buffer. […] The plates were centrifuged (1500 rpm, 10 min) and counted in Topcounter. […]

## CC[C@H](C)[C@H](NC(=O)[C@H](Cc1ccccc1)NC(=O)[C@H](CCC(=O)O)NC(=O)[C@H](CCCCNC(=O)COCCOCCNC(=O)COCCOCCNC(=O)CC[C@H](NC(=O)CCCCCCCCCCCCCCCCC(=O)O)C(=O)O)NC(=O)[C@H](C)NC(=O)[C@H](C)NC(=O)[C@H](CCC(N)=O)NC(=O)CNC(=O)[C@H](CCC(=O)O)NC(=O)[C@H](CC(C)C)NC(=O)[C@H](Cc1ccc(O)cc1)NC(=O)[C@H](CO)NC(=O)[C@H](CO)NC(=O)[C@@H](NC(=O)[C@H](CC(=O)O)NC(=O)[C@H](CO)NC(=O)[C@@H](NC(=O)[C@H](Cc1ccccc1)NC(=O)[C@@H](NC(=O)CNC(=O)[C@H](CCC(=O)O)NC(=O)CCCC(=O)c1ccccc1)[C@@H](C)O)[C@@H](C)O)C(C)C)C(=O)N[C@@H](C)C(=O)N[C@@H](Cc1c[nH]c2ccccc12)C(=O)N[C@@H](CC(C)C)C(=O)N[C@H](C(=O)N[C@@H](CCCNC(=N)N)C(=O)NCC(=O)N[C@@H](CCCNC(=N)N)C(=O)NCC(=O)O)C(C)C [Example 11, N^9-(5-oxo-5-phenylpentanoyl), N^ε26-[2-[2-[2-[[2-[2-[2-[[(4S)-4-carboxy-4-(17-carboxyheptadecanoylamino)butanoyl]amino]ethoxy]ethoxy]acetyl]amino]ethoxy]ethoxy]acetyl]-[Arg^34]-GLP-1-(9-37)-peptide]
Human GLP-1 receptor [1]
  pEC50: < 8.10
Human GLP-1 receptor [2]
  pIC50: < 6.10
